# Assay results taken from patent US20250243176A1, “(S)-1-(1-ACRYLOYLPIPERIDIN-3-YL)-2-FLUORO-5,6,7,8,9,10-HEXAHYDROCYCLO HEPTA[B]INDOLE-4-CARBOXAMIDE, AND RELATED CRYSTALLINE FORMS, COMPOSITIONS, AND METHODS THEREOF” (GB005, Inc., priority 2021, published 2025).
# “Also recorded” adds a separate entry of the source. Read-outs that look alike come from different tables or passages of the source.
# Legend:
# [1] = target: T1, Bruton's tyrosine kinase (BTK) (Homo sapiens, UniProt Q06187); test: BTK cell-free enzymatic assay; assay type: biochemical
# T1 construct: from tissue; host or cells: whole blood
# T1 sequence (Q06187 whole entry, species assumed): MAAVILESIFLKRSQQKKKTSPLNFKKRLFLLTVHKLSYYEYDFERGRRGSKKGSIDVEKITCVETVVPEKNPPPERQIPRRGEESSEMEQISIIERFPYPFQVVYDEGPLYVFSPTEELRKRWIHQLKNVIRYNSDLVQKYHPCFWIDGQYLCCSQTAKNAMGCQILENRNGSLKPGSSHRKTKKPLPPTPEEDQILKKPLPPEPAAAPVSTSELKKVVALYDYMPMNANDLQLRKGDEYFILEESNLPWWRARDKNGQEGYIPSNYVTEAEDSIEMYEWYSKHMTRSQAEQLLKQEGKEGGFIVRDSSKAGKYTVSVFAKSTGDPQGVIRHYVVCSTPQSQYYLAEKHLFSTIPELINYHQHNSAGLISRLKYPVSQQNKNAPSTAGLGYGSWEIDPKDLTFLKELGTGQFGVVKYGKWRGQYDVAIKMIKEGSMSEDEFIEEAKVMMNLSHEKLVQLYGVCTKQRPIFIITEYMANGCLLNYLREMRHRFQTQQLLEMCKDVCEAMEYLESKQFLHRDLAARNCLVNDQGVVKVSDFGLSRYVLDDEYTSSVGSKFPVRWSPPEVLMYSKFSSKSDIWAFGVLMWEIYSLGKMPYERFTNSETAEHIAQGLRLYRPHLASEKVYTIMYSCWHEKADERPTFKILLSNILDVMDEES
# Source text: (S)-1-(1-acryloylpiperidin-3-yl)-2-fluoro-5,6,7,8,9,10-hexahydrocyclohepta[b]indole-4-carboxamide, hereinafter referred to as “Compound 1”, is an orally available, selective, potent inhibitor of Bruton's tyrosine kinase (BTK), thereby providing potential treatment options in BTK-driven diseases. The potency of Compound 1 for BTK inhibition is in the nM range in both cell-free enzymatic and whole blood functional assays.
# [2] = Further solubility testing in excipients, HPLC; assay type: physicochemical
# Description: Compound 1 (˜0.5 g) was added to each excipient until visually saturated. The mixtures were incubated on a temperature-controlled mixer with glass beads to facilitating mixing, for at least 48 hours at room temperature (liquid excipients) or 40° C. (semisolid excipients). The samples were then centrifuged using 0.45 μm PVDF filter to separate the liquid and solid portions. The amount of dissolved compound in the filtrate was quantified by HPLC. XRPD analysis of any solid powder confirmed there was no change in form. The solubility results are presented in Table 16 and show Compound 1 had high solubility (>30 mg/g) in most of the screened excipients.
# [3] = Phase 1 CSF penetrance (CSF/unbound plasma concentration); assay type: in vivo; conditions: both sexes, human, oral; for Kp at 2 h: CSF / unbound plasma
# Description: Safety is assessed throughout the study and PK and PD are characterized using serial blood samples collected up to 48 hours post-dose for Compound 1 plasma concentrations, BTK target occupancy (TO) and target engagement (TE). Cerebrospinal fluid (CSF) samples are collected at 2 hours post-dose to characterize the relationship between Compound 1 plasma concentrations and CNS penetrance (CSF/Unbound plasma concentration). Compound 1 PK parameters (e.g., AUClast, AUCinf, Cmax, Tmax, t1/2) are estimated by standard noncompartmental methods.
# Mean Compound 1 CSF:unbound plasma concentration ratios approximated 1 indicating unimpeded access of unbound drug in plasma into the CNS (see, e.g., Table 46, reported as Mean (% coefficient of variation), and FIG. 26 showing CSF to unbound plasma ratio by dose).
# [4] = Phase 1 multiple ascending dose plasma pharmacokinetics; assay type: in vivo, human; conditions: for Tmax / half-life / Cmax / AUC(0-inf): fed; for half-life / Cmax / AUC(0-inf): human, plasma, oral; for half-life: 15 mg; for AUC(0-inf): read-out: AUC0-inf or tau
# Source text: Part A is a randomized, double-blind, placebo-controlled, single- and -multiple-dose study with staggered dose escalation, administered in the fed state (standard moderate-fat meal). Part A consists of […] (up to 7 single-ascending dose [SAD] cohorts [Cohorts 1-6 & 14], and up to 3 multiple ascending dose [MAD] cohorts [Cohorts 7-9]). Subjects are randomized in a 3:1 ratio per cohort to receive either: Compound 1 Formulation A (N=6 for Cohorts 1-4 and N=9 for Cohorts 5-9 & 14); or placebo (PBO; N=2 for Cohorts 1-4 and N=3 for Cohorts 5-9 & 14).
# • Cohorts 7 and 8: Day 1, all subjects begin once-daily multiple dose administration of Formulation A Compound 1 or placebo for 10 days. • Cohort 9: Day −1, all subjects receive placebo. • Day 1, all subjects begin once-daily multiple dose administration of • Compound 1 or placebo for 10 days.
# Results: Preliminary pharmacokinetic results from 1 completed MAD cohort are presented, including 12 subjects receiving 15 mg once daily for 10 days randomized in a 3:1 ratio to receive Compound 1 or placebo) in a fed state (moderate-fat meal). […] Preliminary PK parameters are presented in Table 47 (all pharmacokinetic parameters of […] are reported as Mean (% coefficient of variation), except for Tmax and t1/2, which are reported as Median (Min, Max), and in FIG. 27 showing single and multiple dose plasma profiles (Mean±SD).
# [5] = Phase 1 safety and tolerability; assay type: in vivo, human; conditions: healthy subjects, blinded safety data
# Description: The study investigates the administration of Compound 1 to healthy human subjects, to evaluate the safety, tolerability and PK of single and multiple-escalating doses. Additional objectives include assessing the effect of formulation on PK, the effect of food on PK, the effect of a CYP3A inhibitor on PK and the effect of Compound 1 on CYP3A activity. PK parameters including AUC, AUC, Cmax, and Tmax are determined. An additional exploratory objective evaluates pharmacodynamics, as the time-course of BTK inhibition. The study is conducted with up to 144 healthy male and female subjects, aged 18-55 years, with a body weight over 48 kg, BMI 18.5-30.0 kg/m^2, with no clinically significant abnormalities.
# Safety is assessed throughout the study and PK and PD are characterized using serial blood samples collected up to 48 hours post-dose for Compound 1 plasma concentrations, BTK target occupancy (TO) and target engagement (TE). Cerebrospinal fluid (CSF) samples are collected at 2 hours post-dose to characterize the relationship between Compound 1 plasma concentrations and CNS penetrance (CSF/Unbound plasma concentration). Compound 1 PK parameters (e.g., AUClast, AUCinf, Cmax, Tmax, t1/2) are estimated by standard noncompartmental methods. […]
# [6] = both sexes, Cohort 7, 15 mg once daily, Day 1, mean
# [7] = Cohort 7, 15 mg once daily, Day 10, mean
smiles,measurement,setting,value
"C=CC(=O)N1CCC[C@@H](c2c(F)cc(C(N)=O)c3[nH]c4c(c23)CCCCC4)C1 [Compound 1, (S)-1-(1-acryloylpiperidin-3-yl)-2-fluoro-5,6,7,8,9,10-hexahydrocyclohepta[b]indole-4-carboxamide]",potency for BTK inhibition,[1],nM range
same,Solubility,"[2]; Capryol PGMC, at least 48 hours, RT (liquid) or 40° C. (semisolid excipients)",38.1 mg/g
same,Solubility,"[2]; Gelucire 44/14, at least 48 hours, RT (liquid) or 40° C. (semisolid excipients)",48.9 mg/g
same,Solubility,"[2]; Gelucire 50/13, at least 48 hours, RT (liquid) or 40° C. (semisolid excipients)",45.9 mg/g
same,Solubility,"[2]; Kolliphor ELP, at least 48 hours, RT (liquid) or 40° C. (semisolid excipients)",36.5 mg/g
same,Solubility,"[2]; Kolliphor HS 15, at least 48 hours, RT (liquid) or 40° C. (semisolid excipients)",53.6 mg/g
same,Solubility,"[2]; Kolliphor RH40, at least 48 hours, RT (liquid) or 40° C. (semisolid excipients)",52.4 mg/g
same,Solubility,"[2]; Labrafil M 1944 CS, at least 48 hours, RT (liquid) or 40° C. (semisolid excipients)",10.7 mg/g
same,Solubility,"[2]; Labrafil M 2125 CS, at least 48 hours, RT (liquid) or 40° C. (semisolid excipients)",9.3 mg/g
same,Solubility,"[2]; Labrasol ALF, at least 48 hours, RT (liquid) or 40° C. (semisolid excipients)",68.1 mg/g
same,Solubility,"[2]; Lauroglycol FCC, at least 48 hours, RT (liquid) or 40° C. (semisolid excipients)",16.0 mg/g
same,Solubility,"[2]; Maisine CC, at least 48 hours, RT (liquid) or 40° C. (semisolid excipients)",16.7 mg/g
same,Solubility,"[2]; Masester E8120, at least 48 hours, RT (liquid) or 40° C. (semisolid excipients)",65.3 mg/g
same,Solubility,"[2]; Miglyol 812N, at least 48 hours, RT (liquid) or 40° C. (semisolid excipients)",2.9 mg/g
same,Solubility,"[2]; Oleic Acid, at least 48 hours, RT (liquid) or 40° C. (semisolid excipients)",21.0 mg/g
same,Solubility,"[2]; PEG 400, at least 48 hours, RT (liquid) or 40° C. (semisolid excipients)",77.3 mg/g
same,Solubility,"[2]; Peceol, at least 48 hours, RT (liquid) or 40° C. (semisolid excipients)",22.8 mg/g
same,Solubility,"[2]; Sesame Oil, at least 48 hours, RT (liquid) or 40° C. (semisolid excipients)",1.9 mg/g
same,Solubility,"[2]; Span 80, at least 48 hours, RT (liquid) or 40° C. (semisolid excipients)",12.2 mg/g
same,Solubility,"[2]; Transcutol HP, at least 48 hours, RT (liquid) or 40° C. (semisolid excipients)",118.6 mg/g
same,Solubility,"[2]; Tween 20, at least 48 hours, RT (liquid) or 40° C. (semisolid excipients)",48.6 mg/g
same,Solubility,"[2]; Tween 80, at least 48 hours, RT (liquid) or 40° C. (semisolid excipients)",49.0 mg/g
same,Solubility,"[2]; Vitamin E TPGS, at least 48 hours, RT (liquid) or 40° C. (semisolid excipients)",40.8 mg/g
same,Solubility,[2]; in most of the screened excipients,> 30 mg/g
same,Kp at 2 h,"[3]; Cohort 2, 15 mg single dose, 2 hr post-dose, mean, read-out: CSF/Unbound Plasma",0.95
same,Kp at 2 h,"[3]; Cohort 3, 45 mg single dose, 2 hr post-dose, mean, read-out: CSF/Unbound Plasma",0.95
same,Kp at 2 h,"[3]; healthy subjects, CSF samples at 2 hours post-dose, read-out: Mean CSF:unbound plasma concentration ratio",~1
same,concentration at 2 h,"[3]; CSF, Cohort 2, 15 mg single dose, mean, read-out: CSF Conc (2 hr)",0.9 ng/mL
same,concentration at 2 h,"[3]; CSF, Cohort 3, 45 mg single dose, mean, read-out: CSF Conc (2 hr)",2.07 ng/mL
same,concentration at 2 h,"[3]; plasma (unbound), Cohort 2, 15 mg single dose, mean, read-out: Unbound Plasma Conc @2 hr",0.83 ng/mL
same,concentration at 2 h,"[3]; plasma (unbound), Cohort 3, 45 mg single dose, mean, read-out: Unbound Plasma Conc @2 hr",2.33 ng/mL
same,concentration at 2 h,"[3]; plasma, Cohort 2, 15 mg single dose, mean, read-out: Plasma Conc @2 hr",63.2 ng/mL
same,concentration at 2 h,"[3]; plasma, Cohort 3, 45 mg single dose, mean, read-out: Plasma Conc @2 hr",159 ng/mL
same,accumulation upon once-daily dosing,[4]; 15 mg once daily for 10 days,Minimal to no accumulation
same,Tmax,"[4]; Cohort 7, 15 mg once daily, Day 1, median",1.5 br
same,Tmax,"[4]; Cohort 7, 15 mg once daily, Day 10, median",1.5 br
same,half-life,"[4]; both sexes, MAD cohort, 15 mg once daily for 10 days, read-out: terminal half-life (converted)",~180 min
same,Cmax,[4]; [6],85.8 ng/mL
same,AUC(0-inf),[4]; [6],312 ng·h/mL
same,half-life,"[4]; Cohort 7, 15 mg once daily, Day 1, median, read-out: T1/2 (converted)",191 min
same,half-life,"[4]; Cohort 7, 15 mg once daily, Day 10, median, read-out: T1/2 (converted)",202 min
same,Cmax,[4]; [7],102 ng/mL
same,AUC(0-inf),[4]; [7],353 ng·h/mL
same,safety and tolerability,"[5]; MAD cohort, 15 mg once daily for 10 days, fed",generally well tolerated with no serious adverse events or early study discontinuations reported
same,safety and tolerability,"[5]; SAD cohorts, single dose 5 to 200 mg, fed (moderate-fat meal)",generally well tolerated with no serious adverse events or early study discontinuations reported; also recorded: well tolerated across the dose range
